How the values were obtained:
[1] = tested on: thrombin generation; experiment: Thrombin generation assay in platelet poor or platelet rich plasma (RFU); type: biochemical, human; settings: betrixaban 250 nM; all rfVIIa concentrations tested
[2] = tested on: aPTT of human plasma; experiment: aPTT clotting assay with MLA Electra 800 automatic coagulation timer; type: biochemical
[3] = in vivo; cited from earlier work

| SMILES | inhibition of fXa by betrixaban in the presence of rfVIIa [1] | aPTT ([2]; 300 nM Betrixaban alone) | aPTT ([2]; 400 nM Betrixaban alone) | extension of aPTT ([2]; 400 nM betrixaban) | reported therapeutic concentration [3] |
| --- | --- | --- | --- | --- | --- |
| COc1ccc(NC(=O)c2ccc(C(=N)N(C)C)cc2)c(C(=O)Nc2ccc(Cl)cn2)c1 [betrixaban, [2-({4-[(dimethylamino)iminomethyl]phenyl}carbonylamino)-5-methoxyphenyl]-N-(5-chloro(2-pyridyl))carboxamide] | about 75% | 61.8 s | 66.3 s | more than two folds |  |
| O=C(NC[C@H]1CN(c2ccc(N3CCOCC3=O)cc2)C(=O)O1)c1ccc(Cl)s1 [rivaroxaban] |  |  |  |  | approximately 600 nM |

From patent US10954503B2, “Antidotes for factor Xa inhibitors and methods of using the same” (Alexion Pharmaceuticals, Inc., priority 2007, dated 2021)
